# Molecular target: T1, human PPARα (Homo sapiens, UniProt Q07869)
# T1 construct: host or cells: proprietary non-human mammalian cells
# T1 sequence (Q07869 1-468): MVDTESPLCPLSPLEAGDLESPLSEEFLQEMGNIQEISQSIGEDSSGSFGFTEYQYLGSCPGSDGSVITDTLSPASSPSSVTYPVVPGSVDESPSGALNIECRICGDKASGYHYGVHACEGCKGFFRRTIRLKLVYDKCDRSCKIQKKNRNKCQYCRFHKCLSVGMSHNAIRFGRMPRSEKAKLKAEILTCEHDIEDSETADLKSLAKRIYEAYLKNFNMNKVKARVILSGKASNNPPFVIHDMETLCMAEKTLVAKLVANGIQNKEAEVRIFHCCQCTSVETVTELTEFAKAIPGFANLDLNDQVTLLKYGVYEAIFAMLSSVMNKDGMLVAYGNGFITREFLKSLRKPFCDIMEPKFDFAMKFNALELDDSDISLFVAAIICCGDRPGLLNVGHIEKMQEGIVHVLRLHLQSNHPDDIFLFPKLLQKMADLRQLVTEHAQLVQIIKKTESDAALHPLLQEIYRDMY
# Test: Human PPARα Reporter Assay (luciferase, Indigo Biosciences)
# Format: cell-based
# Settings: antagonism; luciferase reporter cells, overnight incubation; read-out: PPARα IC50
# Protocol: Human PPARα Reporter Assay
# The screening of test compounds for agonist or antagonist activities against human PPARα receptors was performed using a commercial kit, Human PPARα Reporter Assay System (Indigo Biosciences, Cat. #IB00111).
# This nuclear receptor assay system utilizes proprietary non-human mammalian cells engineered to provide constitutive, high-level expression of Human PPARα. Because these cells incorporate a PPARα-responsive luciferase reporter gene, quantifying expressed luciferase activity provides a sensitive surrogate measure of PPARα activity in the treated cells. The primary application of this reporter assay system is in the screening of test samples to quantify any functional activity, either agonist or antagonist, that they may exert against human PPARα.
# Briefly, reporter cells are dispensed into wells of the assay plate and then immediately dosed with test compounds. Following an overnight incubation, the treatment media is discarded and Luciferase Detection Reagent (LDR) is added. The intensity of light emission from the ensuing luciferase reaction provides a sensitive measure that is directly proportional to the relative level of PPARα activation in the reporter cells.
row,SMILES,IC50
1,"CC(C)(Oc1ccc(CCCC2=NN(c3cccc(-c4ccccc4)c3)C(=O)C23CCCC3)cc1)C(=O)O [Example 38, 2-(4-(3-(3-([1,1′-biphenyl]-3-yl)-4-oxo-2,3-diazaspiro[4,4]non-1-en-1-yl)propyl)phenoxy)-2-methylpropanoic acid]",0.025 µM
2,"CC(C)(CNC(=O)c1ccccc1)Oc1ccc(CCCC2=NN(c3ccc(C(F)(F)F)cc3)C(=O)C23CCCC3)cc1 [Example 47, N-(2-methyl-2-(4-(3-(4-oxo-3-(4-(trifluoromethyl)phenyl)-2,3-diazaspiro[4,4]non-1-en-1-yl)propyl)phenoxy)propyl)benzamide]",0.58 µM
3,"CC(C)(Oc1ccc(CCCC2=NN(Cc3ccc(C(C)(C)C)cc3)C(=O)C2(C)C)cc1)C(=O)NCc1ccccn1 [Example 4, 2-(4-(3-(1-(4-(tert-butyl)benzyl)-4,4-dimethyl-5-oxo-4,5-dihydro-1H-pyrazol-3-yl)propyl)phenoxy)-2-methyl-N-(pyridin-2-ylmethyl)propanamide]",0.24 µM
4,"CC1(C)C(=O)N(c2ccc(C(F)(F)F)cc2)N=C1CCCc1ccc(OC2(C(=O)O)CCCC2)cc1 [Example 52, 1-(4-(3-(4,4-dimethyl-5-oxo-1-(4-(trifluoromethyl)phenyl)-4,5-dihydro-1H-pyrazol-3-yl)propyl)phenoxy)cyclopentanecarboxylic acid]",0.0041 µM
5,"CC1(C)C(=O)N(c2ccc(C(F)(F)F)cc2)N=C1CCCc1ccc(OCC(=O)O)cc1 [Example 49, 2-(4-(3-(4,4-dimethyl-5-oxo-1-(4-(trifluoromethyl)phenyl)-4,5-dihydro-1H-pyrazol-3-yl)propyl)phenoxy)acetic acid]",0.054 µM
6,"CC(C)c1ccc(CN2N=C(CCCc3ccc(OC(C)(C)C(=O)O)cc3)C(C)(C)C2=O)cc1 [Example 12, 2-(4-(3-(1-(4-isopropylbenzyl)-4,4-dimethyl-5-oxo-4,5-dihydro-1H-pyrazol-3-yl)propyl)phenoxy)-2-methylpropanoic acid]",0.022 µM
7,"Cc1ccc(N2N=C(CCCc3ccc(OC(C)(C)C(=O)NC4CC4)cc3)C3(CCCC3)C2=O)cc1C [Example 32, N-cyclopropyl-2-(4-(3-(3-(3,4-dimethylphenyl)-4-oxo-2,3-diazaspiro[4,4]non-1-en-1-yl)propyl)phenoxy)-2-methylpropanamide]",0.25 µM
8,"CC(C)(Oc1ccc(CCCC2=NN(c3ccc(C(F)(F)F)cc3)C(=O)C23CCCC3)cc1)C(=O)NC1CC1 [Example 26, N-cyclopropyl-2-methyl-2-(4-(3-(4-oxo-3-(4-(trifluoromethyl)phenyl)-2,3-diazaspiro[4,4]non-1-en-1-yl)propyl)phenoxy)propanamide]",0.11 µM
9,"Cc1ccc(N2N=C(CCCc3ccc(OC(C)(C)C(=O)NCC(F)(F)F)cc3)C3(CCCC3)C2=O)cc1C [Example 33, 2-(4-(3-(3-(3,4-dimethylphenyl)-4-oxo-2,3-diazaspiro[4,4]non-1-en-1-yl)propyl)phenoxy)-2-methyl-N-(2,2,2-trifluoroethyl)propanamide]",0.5 µM
10,"CC(C)(Oc1ccc(CCCC2=NN(Cc3ccc(C(C)(C)C)cc3)C(=O)C2(C)C)cc1)C(=O)NS(=O)(=O)c1ccccc1 [Example 2, 2-(4-(3-(1-(4-(tert-butyl)benzyl)-4,4-dimethyl-5-oxo-4,5-dihydro-1H-pyrazol-3-yl)propyl)phenoxy)-2-methyl-N-(phenylsulfonyl)propanamide]",0.0021 µM
11,"CC(C)(Oc1ccc(CCCC2=NN(Cc3ccc(C(C)(C)C)cc3)C(=O)C2(C)C)cc1)C(=O)NCc1ccncc1 [Example 5, 2-(4-(3-(1-(4-(tert-butyl)benzyl)-4,4-dimethyl-5-oxo-4,5-dihydro-1H-pyrazol-3-yl)propyl)phenoxy)-2-methyl-N-(pyridin-4-ylmethyl)propanamide]",0.28 µM
12,"CC(C)(Oc1ccc(CCCC2=NN(c3ccc(C(F)(F)F)cc3)C(=O)C23CCCC3)cc1)C(=O)NS(=O)(=O)c1ccccc1 [Example 25, 2-methyl-2-(4-(3-(4-oxo-3-(4-(trifluoromethyl)phenyl)-2,3-diazaspiro[4,4]non-1-en-1-yl)propyl)phenoxy)-N-(phenylsulfonyl)propanamide]",0.001 µM
13,"CCCC1(CCC)C(=O)N(c2ccc(C(F)(F)F)cc2)N=C1CCCc1ccc(OC(C)(C)C(=O)O)cc1 [Example 41, 2-methyl-2-(4-(3-(5-oxo-4,4-dipropyl-1-(4-(trifluoromethyl)phenyl)-4,5-dihydro-1H-pyrazol-3-yl)propyl)phenoxy)propanoic acid]",15 µM
14,"CC(C)(Oc1ccc(CCCC2=NN(c3ccc(OC(F)(F)F)cc3)C(=O)C23CCCC3)cc1)C(=O)NC1CC1 [Example 29, N-cyclopropyl-2-methyl-2-(4-(3-(4-oxo-3-(4-(trifluoromethoxy)phenyl)-2,3-diazaspiro[4,4]non-1-en-1-yl)propyl)phenoxy)propanamide]",0.069 µM
15,"CC(C)(Oc1ccc(CCCC2=NN(Cc3ccc(C4=CCCCC4)cc3)C(=O)C2(C)C)cc1)C(=O)O [Example 15, 2-(4-(3-(4,4-dimethyl-5-oxo-1-((2′,3′,4′,5′-tetrahydro-[1,1′-biphenyl]-4-yl)methyl)-4,5-dihydro-1H-pyrazol-3-yl)propyl)phenoxy)-2-methylpropanoic acid]",0.13 µM
16,"CC(C)(CNS(=O)(=O)c1ccccc1)Oc1ccc(CCCC2=NN(c3ccc(C(F)(F)F)cc3)C(=O)C23CCCC3)cc1 [Example 46, N-(2-methyl-2-(4-(3-(4-oxo-3-(4-(trifluoromethyl)phenyl)-2,3-diazaspiro[4,4]non-1-en-1-yl)propyl)phenoxy)propyl)benzenesulfonamide]",1.3 µM
17,"CC(C)(Oc1ccc(CCCC2=NN(c3ccc(OC(F)(F)F)cc3)C(=O)C23CCCC3)cc1)C(=O)NCC(F)(F)F [Example 30, 2-methyl-2-(4-(3-(4-oxo-3-(4-(trifluoromethoxy)phenyl)-2,3-diazaspiro[4,4]non-1-en-1-yl)propyl)phenoxy)-N-(2,2,2-trifluoroethyl)propanamide]",0.71 µM
18,"CC1(C)C(=O)N(c2ccc(C(F)(F)F)cc2)N=C1CCCc1ccc(OC(C(=O)O)c2ccccc2)cc1 (centres unmarked) [Example 48, 2-(4-(3-(4,4-dimethyl-5-oxo-1-(4-(trifluoromethyl)phenyl)-4,5-dihydro-1H-pyrazol-3-yl)propyl)phenoxy)-2-phenylacetic acid]",0.0047 µM
19,"CC(C)(Oc1ccc(CCCC2=NN(Cc3ccc(Br)cc3)C(=O)C2(C)C)cc1)C(=O)O [Example 13, 2-(4-(3-(1-(4-bromobenzyl)-4,4-dimethyl-5-oxo-4,5-dihydro-1H-pyrazol-3-yl)propyl)phenoxy)-2-methylpropanoic acid]",0.36 µM
20,"CC(C)(Oc1ccc(CCCC2=NN(c3cccc(C(F)(F)F)c3)C(=O)C23CCCC3)cc1)C(=O)O [Example 35, 2-methyl-2-(4-(3-(4-oxo-3-(3-(trifluoromethyl)phenyl)-2,3-diazaspiro[4,4]non-1-en-1-yl)propyl)phenoxy)propanoic acid]",0.032 µM
21,"CC(C)(Oc1ccc(CCCC2=NN(Cc3ccc(C(F)(F)F)c(F)c3)C(=O)C2(C)C)cc1)C(=O)O [Example 18, 2-(4-(3-(1-(3-fluoro-4-(trifluoromethyl)benzyl)-4,4-dimethyl-5-oxo-4,5-dihydro-1H-pyrazol-3-yl)propyl)phenoxy)-2-methylpropanoic acid]",0.12 µM
22,"CC(C)(Oc1ccc(CCCC2=NN(Cc3ccc(C(C)(C)C)cc3)C(=O)C2(C)C)cc1)C(=O)NCC1CCCCC1 [Example 6, 2-(4-(3-(1-(4-(tert-butyl)benzyl)-4,4-dimethyl-5-oxo-4,5-dihydro-1H-pyrazol-3-yl)propyl)phenoxy)-N-(cyclohexylmethyl)-2-methylpropanamide]",0.42 µM
23,"CC(C)(Oc1ccc(CCCC2=NN(Cc3ccc(C(C)(C)C)cc3)C(=O)C2(C)C)cc1)C(=O)NCc1ccccc1 [Example 3, N-benzyl-2-(4-(3-(1-(4-(tert-butyl)benzyl)-4,4-dimethyl-5-oxo-4,5-dihydro-1H-pyrazol-3-yl)propyl)phenoxy)-2-methylpropanamide]",0.16 µM
24,"CC(C)(Oc1ccc(CCCC2=NN(c3ccc(C(C)(C)C)cc3)C(=O)C2(C)C)cc1)C(=O)O [Example 11, 2-(4-(3-(1-(4-(tert-butyl)phenyl)-4,4-dimethyl-5-oxo-4,5-dihydro-1H-pyrazol-3-yl)propyl)phenoxy)-2-methylpropanoic acid]",0.0081 µM
25,"CC(C)(Oc1ccc(CCCC2=NN(CCc3ccccc3)C(=O)C2(C)C)cc1)C(=O)O [Example 9, 2-(4-(3-(4,4-dimethyl-5-oxo-1-phenethyl-4,5-dihydro-H-pyrazol-3-yl)propyl)phenoxy)-2-methylpropanoic acid]",1 µM
26,"CC(C)(Oc1ccc(CCCC2=NN(c3ccc(C(F)(F)F)cc3)C(=O)C23CCCC3)cc1)C(=O)O [Example 24, 2-methyl-2-(4-(3-(4-oxo-3-(4-(trifluoromethyl)phenyl)-2,3-diazaspiro[4,4]non-1-en-1-yl)propyl)phenoxy)propanoic acid]",0.0014 µM
